Reference: publication PMC11830721 (Frontiers in Pharmacology, 2025)

Experiments:
Type in all cases: biochemical
[1] = target: RAF1 (Homo sapiens, UniProt P04049, Y340D/Y341D); assay: SelectScreen kinase selectivity assay; details: ten-dose 0.25–128 μM
Procedure: (§1) Following the standardized kinase activity assay protocol as previously reported, we utilized the SelectScreen Kinase Profiling Service (Thermo Fisher Scientific) to determine the kinase selectivity profile of FLIN-4 ([van der Wel et al., 2020]). Through a ten-dose dilution series ranging from 0.25 μM to 128 μM in dose-response experiments, we precisely measured the inhibitory effect of FLIN-4 on the substrate phosphorylation reactions catalyzed by a panel of kinases, and thus ascertained the half-maximal inhibitory concentrations (IC50) for each kinase.

[2] = target: JAK3 (Homo sapiens, UniProt P52333); assay: SelectScreen kinase selectivity assay; details: ten-dose 0.25–128 μM
Procedure: as §1

[3] = target: CDK1 (Homo sapiens, UniProt P06493); assay: SelectScreen kinase selectivity assay; details: ten-dose 0.25–128 μM
Procedure: as §1

[4] = target: AXL (Homo sapiens, UniProt P30530); assay: SelectScreen kinase selectivity assay; details: ten-dose 0.25–128 μM
Procedure: as §1

[5] = target: BTK (Homo sapiens, UniProt Q06187); assay: SelectScreen kinase selectivity assay; details: ten-dose 0.25–128 μM
Procedure: as §1

[6] = target: NTRK1 (Homo sapiens, UniProt P04629); assay: SelectScreen kinase selectivity assay; details: ten-dose 0.25–128 μM
Procedure: as §1

[7] = target: ABL2 (Homo sapiens, UniProt P42684); assay: SelectScreen kinase selectivity assay; details: ten-dose 0.25–128 μM
Procedure: as §1

[8] = target: FGR (Homo sapiens, UniProt P09769); assay: SelectScreen kinase selectivity assay; details: ten-dose 0.25–128 μM
Procedure: as §1

[9] = target: ERBB2 (Homo sapiens, UniProt P04626); assay: SelectScreen kinase selectivity assay; details: ten-dose 0.25–128 μM
Procedure: as §1

[10] = target: IGF1R (Homo sapiens, UniProt P08069); assay: SelectScreen kinase selectivity assay; details: ten-dose 0.25–128 μM
Procedure: as §1

[11] = target: EPHB2 (Homo sapiens, UniProt P29323); assay: SelectScreen kinase selectivity assay; details: ten-dose 0.25–128 μM
Procedure: as §1

[12] = target: FGFR4 (Homo sapiens, UniProt P22455); assay: SelectScreen kinase selectivity assay; details: ten-dose 0.25–128 μM
Procedure: as §1

[13] = target: NTRK3 (Homo sapiens, UniProt Q16288); assay: SelectScreen kinase selectivity assay; details: ten-dose 0.25–128 μM
Procedure: as §1

[14] = target: ABL1 (Homo sapiens, UniProt P00519); assay: SelectScreen kinase selectivity assay; details: ten-dose 0.25–128 μM
Procedure: as §1

[15] = target: TYRO3 (Homo sapiens, UniProt Q06418); assay: SelectScreen kinase selectivity assay; details: ten-dose 0.25–128 μM
Procedure: as §1

[16] = target: FRK (Homo sapiens, UniProt P42685); assay: SelectScreen kinase selectivity assay; details: ten-dose 0.25–128 μM
Procedure: as §1

[17] = target: ALK (Homo sapiens, UniProt Q9UM73); assay: SelectScreen kinase selectivity assay; details: ten-dose 0.25–128 μM
Procedure: as §1

[18] = target: FGFR3 (Homo sapiens, UniProt P22607); assay: SelectScreen kinase selectivity assay; details: ten-dose 0.25–128 μM
Procedure: as §1

[19] = target: FES (Homo sapiens, UniProt P07332); assay: SelectScreen kinase selectivity assay; details: ten-dose 0.25–128 μM
Procedure: as §1

[20] = target: FGFR2 (Homo sapiens, UniProt P21802); assay: SelectScreen kinase selectivity assay; details: ten-dose 0.25–128 μM
Procedure: as §1

[21] = target: LYN (Homo sapiens, UniProt P07948); assay: SelectScreen kinase selectivity assay; details: ten-dose 0.25–128 μM
Procedure: as §1

[22] = target: PLK1 (Homo sapiens, UniProt P53350); assay: SelectScreen kinase selectivity assay; details: ten-dose 0.25–128 μM
Procedure: as §1

[23] = target: MST1R (Homo sapiens, UniProt Q04912); assay: SelectScreen kinase selectivity assay; details: ten-dose 0.25–128 μM
Procedure: as §1

[24] = target: EPHA1 (Homo sapiens, UniProt P21709); assay: SelectScreen kinase selectivity assay; details: ten-dose 0.25–128 μM
Procedure: as §1

[25] = target: YES1 (Homo sapiens, UniProt P07947); assay: SelectScreen kinase selectivity assay; details: ten-dose 0.25–128 μM
Procedure: as §1

[26] = target: T1, FLT3-ITD (Homo sapiens, UniProt P36888, ITD); assay: ADP-Glo kinase-inhibition assay; details: ADP-Glo; ATP 100 μM; FLT3-ITD 10 ng/μL
T1 sequence (P36888 27-993): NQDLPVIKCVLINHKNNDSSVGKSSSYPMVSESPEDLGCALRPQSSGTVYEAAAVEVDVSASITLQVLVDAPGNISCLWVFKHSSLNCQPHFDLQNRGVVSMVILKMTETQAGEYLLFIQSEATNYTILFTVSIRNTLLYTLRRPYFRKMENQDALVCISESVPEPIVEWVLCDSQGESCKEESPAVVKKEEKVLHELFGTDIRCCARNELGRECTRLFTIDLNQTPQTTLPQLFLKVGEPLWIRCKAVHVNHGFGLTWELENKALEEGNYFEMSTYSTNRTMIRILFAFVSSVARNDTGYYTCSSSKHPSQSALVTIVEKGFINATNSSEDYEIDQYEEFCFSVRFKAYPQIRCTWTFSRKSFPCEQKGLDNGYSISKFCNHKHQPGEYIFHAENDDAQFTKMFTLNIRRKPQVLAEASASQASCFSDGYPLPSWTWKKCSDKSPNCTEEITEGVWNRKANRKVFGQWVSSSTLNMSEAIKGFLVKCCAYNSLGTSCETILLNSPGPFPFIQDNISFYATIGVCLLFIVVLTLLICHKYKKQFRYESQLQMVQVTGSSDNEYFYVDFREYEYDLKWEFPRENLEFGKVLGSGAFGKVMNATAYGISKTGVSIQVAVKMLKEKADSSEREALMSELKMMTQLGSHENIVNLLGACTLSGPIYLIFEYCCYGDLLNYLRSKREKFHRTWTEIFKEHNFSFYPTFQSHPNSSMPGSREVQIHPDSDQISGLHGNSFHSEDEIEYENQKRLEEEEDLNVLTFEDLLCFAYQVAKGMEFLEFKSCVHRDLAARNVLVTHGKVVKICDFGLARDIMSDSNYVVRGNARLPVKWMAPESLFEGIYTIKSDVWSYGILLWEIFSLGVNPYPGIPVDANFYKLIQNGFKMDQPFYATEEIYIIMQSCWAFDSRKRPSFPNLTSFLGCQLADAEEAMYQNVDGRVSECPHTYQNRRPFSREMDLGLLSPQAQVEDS
Procedure: (§2) Subsequently, the kinase detection reagent was added and incubated for an additional 15 min. Finally, the mixture was incubated for 1 h, and relative luminescence units (RLU) were measured.
(§3) Moreover, we extended the kinase selectivity profiling of FLIN-4 to evaluate its inhibitory activity against 60 non-target kinases.

[27] = tested on: FLT3-ITD; assay: ADP-Glo kinase-inhibition assay; details: ratio of IC50 values vs Midostaurin
Procedure: as §2, §3

Sequence of FGFR4 (P22455 22-802): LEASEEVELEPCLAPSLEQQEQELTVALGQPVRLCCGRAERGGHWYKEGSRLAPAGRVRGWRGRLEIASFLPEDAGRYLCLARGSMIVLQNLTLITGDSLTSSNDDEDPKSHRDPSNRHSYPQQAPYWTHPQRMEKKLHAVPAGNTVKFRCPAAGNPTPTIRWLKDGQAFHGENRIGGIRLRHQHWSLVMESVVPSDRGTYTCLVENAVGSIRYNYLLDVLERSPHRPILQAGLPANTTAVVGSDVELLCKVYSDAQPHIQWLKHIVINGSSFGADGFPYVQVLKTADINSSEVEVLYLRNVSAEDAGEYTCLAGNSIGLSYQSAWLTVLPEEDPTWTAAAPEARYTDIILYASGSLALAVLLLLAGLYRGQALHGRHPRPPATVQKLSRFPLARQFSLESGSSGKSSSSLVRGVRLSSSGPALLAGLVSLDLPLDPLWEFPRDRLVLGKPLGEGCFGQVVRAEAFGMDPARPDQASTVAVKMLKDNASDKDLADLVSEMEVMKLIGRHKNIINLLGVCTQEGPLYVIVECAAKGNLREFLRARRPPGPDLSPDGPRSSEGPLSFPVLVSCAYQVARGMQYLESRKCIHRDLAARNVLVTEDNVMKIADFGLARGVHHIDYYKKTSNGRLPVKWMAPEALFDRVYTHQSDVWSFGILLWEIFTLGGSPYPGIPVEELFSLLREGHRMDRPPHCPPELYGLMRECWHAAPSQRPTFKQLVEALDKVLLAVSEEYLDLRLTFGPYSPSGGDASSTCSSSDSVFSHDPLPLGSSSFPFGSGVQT
Sequence of ABL2 (P42684 whole entry): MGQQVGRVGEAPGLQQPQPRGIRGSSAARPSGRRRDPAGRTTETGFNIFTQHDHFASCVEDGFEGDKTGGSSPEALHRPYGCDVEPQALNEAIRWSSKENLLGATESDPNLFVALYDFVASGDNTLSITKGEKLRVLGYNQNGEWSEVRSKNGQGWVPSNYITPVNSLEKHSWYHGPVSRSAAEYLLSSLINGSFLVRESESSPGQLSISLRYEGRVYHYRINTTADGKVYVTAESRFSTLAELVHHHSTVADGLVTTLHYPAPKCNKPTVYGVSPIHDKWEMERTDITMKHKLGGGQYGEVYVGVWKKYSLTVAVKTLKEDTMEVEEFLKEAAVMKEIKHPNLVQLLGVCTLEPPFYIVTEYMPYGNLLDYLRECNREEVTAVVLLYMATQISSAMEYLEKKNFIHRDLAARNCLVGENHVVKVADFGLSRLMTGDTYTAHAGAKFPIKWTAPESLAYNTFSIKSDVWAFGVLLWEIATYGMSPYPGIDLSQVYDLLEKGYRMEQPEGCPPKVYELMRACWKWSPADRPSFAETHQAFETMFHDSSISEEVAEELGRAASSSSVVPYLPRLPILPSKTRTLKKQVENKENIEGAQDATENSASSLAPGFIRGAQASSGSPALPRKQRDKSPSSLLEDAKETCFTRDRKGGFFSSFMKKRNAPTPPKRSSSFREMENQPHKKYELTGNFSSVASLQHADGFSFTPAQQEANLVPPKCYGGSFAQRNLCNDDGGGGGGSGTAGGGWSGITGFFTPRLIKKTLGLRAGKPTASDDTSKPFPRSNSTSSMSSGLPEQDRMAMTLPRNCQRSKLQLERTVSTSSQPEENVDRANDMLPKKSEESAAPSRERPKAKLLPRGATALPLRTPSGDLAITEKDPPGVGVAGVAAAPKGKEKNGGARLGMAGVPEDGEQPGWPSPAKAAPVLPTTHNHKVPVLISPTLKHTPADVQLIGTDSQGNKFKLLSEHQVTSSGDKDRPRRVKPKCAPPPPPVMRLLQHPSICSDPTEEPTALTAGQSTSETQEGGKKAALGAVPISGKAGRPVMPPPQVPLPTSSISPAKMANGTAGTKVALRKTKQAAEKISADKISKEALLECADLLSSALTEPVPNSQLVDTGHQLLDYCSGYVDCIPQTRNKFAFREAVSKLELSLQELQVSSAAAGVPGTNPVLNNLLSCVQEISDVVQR
Sequence of NTRK1 (P04629 33-796): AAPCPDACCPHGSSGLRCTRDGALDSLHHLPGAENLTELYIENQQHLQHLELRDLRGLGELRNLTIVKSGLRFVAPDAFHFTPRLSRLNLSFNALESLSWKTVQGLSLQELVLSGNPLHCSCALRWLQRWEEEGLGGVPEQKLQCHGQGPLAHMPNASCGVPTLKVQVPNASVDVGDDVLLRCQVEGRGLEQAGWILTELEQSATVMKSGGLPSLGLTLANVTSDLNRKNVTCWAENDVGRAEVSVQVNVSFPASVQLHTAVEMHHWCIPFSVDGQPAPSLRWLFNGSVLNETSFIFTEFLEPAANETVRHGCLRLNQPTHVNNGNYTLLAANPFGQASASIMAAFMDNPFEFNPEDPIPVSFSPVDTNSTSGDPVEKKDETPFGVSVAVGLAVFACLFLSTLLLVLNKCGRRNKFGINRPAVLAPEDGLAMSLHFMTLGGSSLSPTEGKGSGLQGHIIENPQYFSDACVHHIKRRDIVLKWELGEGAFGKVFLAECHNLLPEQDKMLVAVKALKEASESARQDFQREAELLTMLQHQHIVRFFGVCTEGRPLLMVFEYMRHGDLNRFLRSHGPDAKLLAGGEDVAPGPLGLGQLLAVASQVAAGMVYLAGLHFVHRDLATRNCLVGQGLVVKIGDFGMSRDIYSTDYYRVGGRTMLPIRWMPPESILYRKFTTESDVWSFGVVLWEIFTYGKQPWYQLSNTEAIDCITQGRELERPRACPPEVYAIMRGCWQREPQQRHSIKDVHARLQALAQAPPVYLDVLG
Sequence of JAK3 (P52333 whole entry): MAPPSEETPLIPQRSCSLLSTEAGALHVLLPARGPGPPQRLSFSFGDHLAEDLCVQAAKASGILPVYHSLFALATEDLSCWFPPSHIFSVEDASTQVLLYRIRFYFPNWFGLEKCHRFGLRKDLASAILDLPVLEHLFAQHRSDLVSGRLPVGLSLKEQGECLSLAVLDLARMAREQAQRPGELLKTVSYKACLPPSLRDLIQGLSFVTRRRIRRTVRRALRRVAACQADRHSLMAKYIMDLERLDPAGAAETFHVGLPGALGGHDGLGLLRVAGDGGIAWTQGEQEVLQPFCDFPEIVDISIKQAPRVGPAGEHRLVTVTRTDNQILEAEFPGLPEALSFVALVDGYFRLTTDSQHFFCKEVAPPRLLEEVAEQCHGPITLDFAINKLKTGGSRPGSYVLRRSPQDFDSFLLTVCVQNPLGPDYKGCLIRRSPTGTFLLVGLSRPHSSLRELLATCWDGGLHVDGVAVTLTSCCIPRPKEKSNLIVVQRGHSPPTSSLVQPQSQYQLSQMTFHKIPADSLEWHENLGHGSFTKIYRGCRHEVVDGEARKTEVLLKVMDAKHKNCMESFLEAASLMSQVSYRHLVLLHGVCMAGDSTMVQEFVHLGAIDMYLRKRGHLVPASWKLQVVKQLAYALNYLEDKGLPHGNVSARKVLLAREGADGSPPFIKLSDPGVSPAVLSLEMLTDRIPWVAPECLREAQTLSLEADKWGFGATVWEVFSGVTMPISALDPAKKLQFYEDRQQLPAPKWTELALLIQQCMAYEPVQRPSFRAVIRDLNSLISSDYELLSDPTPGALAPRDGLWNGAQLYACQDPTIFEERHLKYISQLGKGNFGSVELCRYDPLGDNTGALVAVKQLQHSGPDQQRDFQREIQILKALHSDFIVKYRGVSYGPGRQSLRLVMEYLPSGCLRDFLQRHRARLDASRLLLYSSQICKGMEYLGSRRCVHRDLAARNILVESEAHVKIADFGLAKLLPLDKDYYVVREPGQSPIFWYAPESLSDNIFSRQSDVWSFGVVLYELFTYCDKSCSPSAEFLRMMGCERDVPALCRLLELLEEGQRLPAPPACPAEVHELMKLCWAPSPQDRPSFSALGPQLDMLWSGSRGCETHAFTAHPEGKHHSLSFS
Sequence of EPHA1 (P21709 26-976): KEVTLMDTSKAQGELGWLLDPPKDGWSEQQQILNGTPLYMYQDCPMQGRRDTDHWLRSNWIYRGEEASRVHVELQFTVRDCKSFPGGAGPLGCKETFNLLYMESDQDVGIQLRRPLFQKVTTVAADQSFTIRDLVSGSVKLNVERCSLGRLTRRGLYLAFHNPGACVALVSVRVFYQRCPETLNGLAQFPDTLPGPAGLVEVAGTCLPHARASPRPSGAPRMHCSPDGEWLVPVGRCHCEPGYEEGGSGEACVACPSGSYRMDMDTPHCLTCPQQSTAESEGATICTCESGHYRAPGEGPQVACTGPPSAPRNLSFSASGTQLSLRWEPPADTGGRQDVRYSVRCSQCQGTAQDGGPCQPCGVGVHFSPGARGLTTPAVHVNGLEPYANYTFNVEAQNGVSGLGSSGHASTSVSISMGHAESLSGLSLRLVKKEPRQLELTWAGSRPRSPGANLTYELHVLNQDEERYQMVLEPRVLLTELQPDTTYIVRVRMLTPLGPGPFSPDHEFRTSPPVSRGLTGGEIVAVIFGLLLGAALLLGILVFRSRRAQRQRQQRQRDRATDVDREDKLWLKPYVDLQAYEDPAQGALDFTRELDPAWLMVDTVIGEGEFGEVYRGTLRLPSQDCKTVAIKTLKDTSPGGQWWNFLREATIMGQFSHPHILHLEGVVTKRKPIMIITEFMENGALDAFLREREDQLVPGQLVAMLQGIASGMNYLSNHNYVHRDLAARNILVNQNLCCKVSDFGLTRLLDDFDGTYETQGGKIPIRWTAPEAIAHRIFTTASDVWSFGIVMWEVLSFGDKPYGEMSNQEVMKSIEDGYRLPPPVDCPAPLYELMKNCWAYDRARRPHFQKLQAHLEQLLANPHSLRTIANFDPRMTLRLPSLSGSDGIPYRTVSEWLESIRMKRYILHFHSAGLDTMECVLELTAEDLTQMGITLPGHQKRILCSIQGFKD

CCc1nc(C(N)=O)c(Nc2ccc(N3CCC(Nc4ccccc4)CC3)c(OC)c2)nc1NC1CCOC(C(O)CO)C1 (stereo not drawn) [FLIN-4]
IC50 [1]: > 10 µM | IC50 [2]: > 10 µM | IC50 [3]: > 10 µM | IC50 [4]: > 10 µM | IC50 [5]: > 10 µM | IC50 [6]: > 10 µM | IC50 [7]: > 10 µM | IC50 [8]: > 10 µM | IC50 [9]: > 10 µM | IC50 [10]: > 10 µM | IC50 [11]: > 10 µM | IC50 [12]: > 10 µM | IC50 [13]: > 10 µM | IC50 [14]: > 10 µM | IC50 [15]: > 10 µM | IC50 [16]: > 10 µM | IC50 [17]: > 10 µM | IC50 [18]: > 10 µM | IC50 [19]: > 10 µM | IC50 [20]: > 10 µM | IC50 [21]: > 10 µM | IC50 [22]: > 10 µM | IC50 [23]: > 10 µM | IC50 [24]: > 10 µM | IC50 [25]: > 10 µM | IC50 [26]: 0.00107 ± 4e-05 µM | FLT3-ITD inhibitory potency relative to Midostaurin [27]: approximately 27 times
